# Results as given in patent US20240425583A1, “METHODS AND COMPOSITIONS RELATED TO MCL-1 AND BIM HETERODIMER ANTIBODIES” (priority 2021, published 2024).
# How the values were obtained:
# Mcl-1:Bim complex [1] = experiment: Heterodimer to monomer ratio by flow cytometry in UKE-1 cells (FIG. 18); type: cell-based; settings: A1155463 treated UKE-1 cells, detected with F05
# Experimental: (§1) FIG. 18 is a graph showing a ratio of measured heterodimer to monomer in Bcl-xL dependent cell lines: Bcl-2:Bim, Mcl-1:Bim, and Bcl-xL:Bim. Bcl-xL:Bim shifts against Bcl-xL and Mcl-1 upon treatment. In this experiment, a shift away from the complex is detected when the sample is treated with BCLXL targeted BH3 mimetic (A1155463).
# BCLXL: BIM = BCLXL: BIM (Homo sapiens, UniProt Q07817); experiment: PRIMAB intra-cellular immunofluorescent staining and flow cytometry in U266B1 cells (FIG. 19); settings: BCLXL primed U266B1 cells, HSBXB PRIMAB
# Chain of BCLXL: BIM (Q07817 whole entry): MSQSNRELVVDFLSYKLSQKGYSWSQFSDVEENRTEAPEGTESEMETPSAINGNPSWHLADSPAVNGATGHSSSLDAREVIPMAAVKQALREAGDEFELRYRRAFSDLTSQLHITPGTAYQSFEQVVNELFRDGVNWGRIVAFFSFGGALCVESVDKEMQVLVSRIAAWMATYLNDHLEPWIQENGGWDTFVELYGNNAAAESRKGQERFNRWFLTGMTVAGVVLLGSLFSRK
# Experimental: Priming complexes in leukemia cells were measured by intra-cellular immunofluorescent staining with PRIMABs and detected by flow cytometry.
# Mcl-1:Bim complex [2] = experiment: Heterodimer to monomer ratio by flow cytometry in SET2 cells (FIG. 18); type: cell-based; settings: A1155463 treated SET2 cells, detected with F05
# Experimental: as §1
# BCL2:BIM complex [3] = biological target: T1, BCL2:BIM complex (Homo sapiens, UniProt P10415); experiment: PRIMAB intra-cellular immunofluorescent staining and flow cytometry in U2932 cells (FIG. 19); type: cell-based; set-up: endogenous in cells; host or cells: U2932; settings: BCL2 primed U2932 cells
# T1 sequence (P10415 whole entry, one chain of several): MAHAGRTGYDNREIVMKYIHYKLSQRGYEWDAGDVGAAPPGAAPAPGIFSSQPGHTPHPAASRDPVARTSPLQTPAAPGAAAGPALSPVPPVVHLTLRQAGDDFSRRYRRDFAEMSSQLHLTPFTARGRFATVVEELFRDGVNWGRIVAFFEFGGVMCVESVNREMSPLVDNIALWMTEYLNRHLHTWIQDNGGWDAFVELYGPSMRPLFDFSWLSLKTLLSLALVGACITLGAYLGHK
# Description: These shifts match BH3 mimetic selectivity.
# BCL2:BIM complex [4] = biological target: T1, BCL2:BIM complex; experiment: Flow cytometry of BH3 mimetic treated cells, heterodimer-specific vs monomer antibodies (FIG. 17); type: cell-based; set-up: endogenous in cells; settings: detected with 2H3 (BCL2:BIM) and F05 (MCL-1:BIM)
# Experimental: This shift is detected by MCL-1:BIM specific antibody (F05) relative to total MCL-1 in the cell. In this experiment, cells are treated with specific BCL2 targeted BH3 mimetic (AZD4320, Medchemexpress), fixed, permeabilized, and stained with heterodimer-specific antibodies and standard antibodies against monomers. Signals are measured on FLOW Cytometer, show relative signal and the data shown in FIG. 17 is a ratio of complex/monomer signal. FIG. 17 is a graph showing a BCL2:BIM complex specific antibody that tracts with complex disruption by a BH3 mimetic.
structure (smiles),measurement,setting,value
CN(C)CC#Cc1ccc(OCCCc2sc(N3CCc4cccc(C(=O)Nc5nc6ccccc6s5)c4C3)nc2C(=O)O)c(F)c1 [A1155463],ratio of measured heterodimer to monomer,Mcl-1:Bim complex [1],shift and “priming” to MCL1:BIM complex
same,priming complex shift by PRIMAB readout,BCLXL: BIM,BCLXL: BIM shift
same,ratio of measured heterodimer to monomer,Mcl-1:Bim complex [2],shift and “priming” to MCL1:BIM complex
CC1(C)CCC(CN2CCN(c3ccc(C(=O)NS(=O)(=O)c4ccc(NCC5CCOCC5)c([N+](=O)[O-])c4)c(Oc4cnc5[nH]ccc5c4)c3)CC2)=C(c2ccc(Cl)cc2)C1 [ABT-199],priming complex shift by PRIMAB readout,BCL2:BIM complex [3],disruption of BCL2: BIM complex
CN(CCO)CC[C@H](CSc1ccccc1)Nc1ccc(S(=O)(=O)NC(=O)c2ccc(N3CCC([C@@H](O)c4ccccc4-c4ccc(Cl)cc4)CC3)cc2)cc1S(=O)(=O)C(F)(F)F [AZD4320],ratio of complex/monomer signal,BCL2:BIM complex [4],shift from the BCL2:BIM complex to the MCL-1:BIM complex
